Data set [1] has as its target Mitogen-activated protein kinase 10 (Homo sapiens, UniProt P53779). As to the kind of experiment: Inhibition of JNK3 (unknown origin) assessed as phosphorylation of ATF-2 by ELISA. Background: An ELISA detects its analyte on a solid surface through an enzyme-linked reagent.
The target of data set [2] is Mitogen-activated protein kinase 14 (Homo sapiens, UniProt Q16539). The experiment in a line: Inhibition of p38alpha (unknown origin) assessed as phosphorylation of ATF-2 by ELISA.
Mitogen-activated protein kinase 14, sequence (Q16539 whole entry): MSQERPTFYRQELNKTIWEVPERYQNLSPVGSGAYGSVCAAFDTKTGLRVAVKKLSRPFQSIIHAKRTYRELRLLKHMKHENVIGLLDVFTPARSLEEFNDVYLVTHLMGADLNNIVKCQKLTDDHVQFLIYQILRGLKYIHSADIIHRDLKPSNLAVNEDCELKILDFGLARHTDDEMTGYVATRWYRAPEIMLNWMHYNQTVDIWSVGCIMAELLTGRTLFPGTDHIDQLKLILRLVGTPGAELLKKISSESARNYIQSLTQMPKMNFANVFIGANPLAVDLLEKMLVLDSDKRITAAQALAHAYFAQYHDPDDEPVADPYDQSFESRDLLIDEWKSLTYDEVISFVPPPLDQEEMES
Another data set is filed under the species Homo sapiens. As to the kind of experiment: Selectivity ratio of IC50 for JNK3 (unknown origin) to IC50 for p38alpha (unknown origin).
A further data set relates to U2OS. As to the kind of experiment: Cytotoxicity against human U2OS cells assessed as morphology up to 50 uM by DAPI staining assay. In kind it is cell-based.
Data set [3] is described as follows: Metabolic stability in human liver microsomes assessed as compound remaining after 240 mins by LC-MS/MS analysis. It counts as ADME. Particulars: read-out: Stability.
The nature of data set [4]: Solubility in aqueous PBS-buffer at pH 7.4. In kind it is physicochemical.

The results in this text go back to ChEMBL document CHEMBL3393036, “Tetra-substituted pyridinylimidazoles as dual inhibitors of p38α mitogen-activated protein kinase and c-Jun N-terminal kinase 3 for potential treatment of neurodegenerative diseases” (J Med Chem, 2015).

Molecules are shown by their SMILES. Values after ≈ are worked out from the molar mass of the structure shown.

Mitogen-activated protein kinase 10, sequence (P53779 whole entry): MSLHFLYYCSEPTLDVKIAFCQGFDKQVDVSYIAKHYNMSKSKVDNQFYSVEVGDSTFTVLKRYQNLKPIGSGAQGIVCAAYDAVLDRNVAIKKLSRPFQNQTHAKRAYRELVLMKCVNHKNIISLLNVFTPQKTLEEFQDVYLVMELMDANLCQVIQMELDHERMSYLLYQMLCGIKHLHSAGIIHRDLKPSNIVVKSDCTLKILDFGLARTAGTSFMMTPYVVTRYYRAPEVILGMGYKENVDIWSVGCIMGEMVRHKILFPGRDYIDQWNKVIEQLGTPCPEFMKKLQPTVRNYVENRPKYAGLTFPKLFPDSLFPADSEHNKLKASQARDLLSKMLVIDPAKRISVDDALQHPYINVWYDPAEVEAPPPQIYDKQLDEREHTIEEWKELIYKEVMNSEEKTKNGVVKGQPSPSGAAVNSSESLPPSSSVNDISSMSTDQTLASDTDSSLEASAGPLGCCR

With `CCNC(=O)N1CCC(Nc2cc(-c3c(-c4ccc(F)cc4)nc(S/C=C\C(=O)O)n3C)ccn2)CC1`, the IC50 (commonly the concentration at which inhibition is half-maximal) in data set [1] came out at 61 nM; in data set [2], 146 nM. In the data set filed under Homo sapiens, the Ratio IC50 was 0.4.
Taken in the same sequence, the figures for `CCOC(=O)/C=C/Sc1nc(-c2ccc(F)cc2)c(-c2ccnc(NC(C)=O)c2)n1CC1CC1` were 1220 nM, 655 nM and 1.8.
Taken in the same sequence, the figures for `CC(=O)Nc1cc(-c2c(-c3ccc(F)cc3)nc(SCC(=O)O)n2C)ccn1` were 266 nM, 1670 nM and 0.2.
In the case of `CC(=O)Nc1cc(-c2c(-c3ccc(F)cc3)nc(S/C=C/C(=O)O)n2CC2CC2)ccn1`, the IC50 in data set [1] worked out at 170 nM; in data set [2] it was 208 nM. Moreover, the Ratio IC50 in the data set listed under Homo sapiens worked out at 0.8.
As to `COC(Cn1c(SCCC(=O)O)nc(-c2ccc(F)cc2)c1-c1ccnc(NC(C)=O)c1)OC`, the IC50 amounted to 269 nM in data set [1] and 1700 nM in data set [2]. Moreover, the Ratio IC50 in the data set filed under Homo sapiens worked out at 0.2.
In the same order, the values of `CC(=O)Nc1cc(-c2c(-c3ccc(F)cc3)nc(SCCC(=O)O)n2C)ccn1` are 91 nM, 246 nM and 0.4.
In the same order, the values of `O=C(O)/C=C/Sc1nc(-c2ccc(F)cc2)c(-c2ccnc(Nc3ccccc3)c2)n1CC1CC1` are 213 nM, 181 nM and 1.2.
In the same order, the values of `O=C(O)/C=C\Sc1nc(-c2ccc(F)cc2)c(-c2ccnc(Nc3ccccc3)c2)n1CC1CC1` are 54 nM, 354 nM and 0.2.
Consider `CC(=O)Nc1cc(-c2c(-c3ccc(F)cc3)nc(SC3CCC(C(=O)O)CC3O)n2C2CCCCC2)ccn1` (stereo not given), for which the IC50 turned out to be 79 nM in data set [1] and 416 nM in data set [2]. The Ratio IC50 in the data set listed under Homo sapiens is 0.2.
Take `COC(Cn1c(SCC#N)nc(-c2ccc(F)cc2)c1-c1ccnc(F)c1)OC`: the IC50 came out at 4220 nM in data set [1] and 642 nM in data set [2]. The Ratio IC50 in the data set listed under Homo sapiens is 6.6.
Taken in the same sequence, the figures for `CCOC(=O)/C=C/Sc1nc(-c2ccc(F)cc2)c(-c2ccnc(NC(C)=O)c2)n1CC(OC)OC` were 2170 nM, 2180 nM and 1.
Take `COC(Cn1c(SCC#N)nc(-c2ccc(F)cc2)c1-c1ccnc(NC2CC2)c1)OC`: in the data set on U2OS, the Activity result is “Non-toxic”. Moreover, the results for the IC50 in data set [1] and in data set [2] were 79 nM and 153 nM, respectively. The Ratio IC50 in the data set listed under Homo sapiens stood at 0.5.
`CC(=O)Nc1cc(-c2c(-c3ccc(F)cc3)nc(S/C=C\C(=O)O)n2C)ccn1`: the IC50 is 55 nM in data set [1] and 191 nM in data set [2]. In the data set filed under Homo sapiens, the Ratio IC50 came to 0.3.
As to `CC(=O)Nc1cc(-c2c(-c3ccc(F)cc3)nc(S/C=C\C(=O)O)n2CC2CC2)ccn1`, the remaining at 4 h in data set [3] came out at 70%. Moreover, the Activity result with U2OS is “Non-toxic”. For the same compound, the IC50 stood at 18 nM in data set [1] and 30 nM in data set [2]. The concentration in solution in data set [4] (solubility) was 1200 µg/mL (≈ 2650 µM). The Ratio IC50 in the data set listed under Homo sapiens was 0.6.
Turning to `CC(=O)Nc1cc(-c2c(-c3ccc(F)cc3)nc(SCC(=O)N(C)C)n2C)ccn1`, the figures for the half-maximal inhibitory concentration (IC50) in data set [1] and in data set [2] were 1190 nM and 140 nM, respectively. In the data set filed under Homo sapiens, the Ratio IC50 stood at 8.5.
Taken in the same sequence, the figures for `CCOC(=O)/C=C\Sc1nc(-c2ccc(F)cc2)c(-c2ccnc(Nc3ccccc3)c2)[nH]1` were 80 nM, 146 nM and 0.5.
Taken in the same sequence, the figures for `CC(=O)Nc1cc(-c2c(-c3ccc(F)cc3)nc(SC3CCC(C(=O)O)CC3O)n2C)ccn1` (stereo not given) were 180 nM, 764 nM and 0.2.
In the same order, the values of `COC(Cn1c(S/C=C\C(=O)O)nc(-c2ccc(F)cc2)c1-c1ccnc(NC2CC2)c1)OC` are 12 nM, 128 nM and 0.1.
With `CCOC(=O)/C=C/Sc1nc(-c2ccc(F)cc2)c(-c2ccnc(NC(C)=O)c2)n1C1CC1`, the IC50 in data set [1] came to 678 nM; in data set [2], 451 nM. Further, the Ratio IC50 in the data set filed under Homo sapiens was 1.5.
As for `O=C(O)/C=C\Sc1nc(-c2ccc(F)cc2)c(-c2ccnc(Nc3ccccc3)c2)[nH]1`, in the data set on U2OS, the Activity result is “Non-toxic”. Further, the 50% inhibitory concentration (IC50) in data set [1] amounted to 17 nM; in data set [2], 36 nM. For the same compound, in the data set listed under Homo sapiens, the Ratio IC50 turned out to be 0.5.
In the case of `CCC(C)Nc1cc(-c2c(-c3ccc(F)cc3)nc(S/C=C\C(=O)O)n2CC(OC)OC)ccn1` (stereo not given), in data set [3], the remaining at 4 h is 56%. Besides, the Activity result with U2OS is on record as “Non-toxic”. In addition, the results for the half-inhibitory concentration (IC50) in data set [1] and in data set [2] were 26 nM and 34 nM, respectively. Further, in data set [4], the solubility (in general, how much of the substance goes into solution per volume) came to 930 µg/mL (≈ 1860 µM). Further, the Ratio IC50 in the data set listed under Homo sapiens was found to be 0.8.
As for `CC(=O)Nc1cc(-c2c(-c3ccc(F)cc3)nc(S/C=C\C(=O)O)n2CC(O)CO)ccn1` (stereo not given), the IC50 in data set [1] is 226 nM; in data set [2] it was 723 nM. In addition, in the data set filed under Homo sapiens, the Ratio IC50 stood at 0.3.
In the same order, the values of `CC(=O)CSc1nc(-c2ccc(F)cc2)c(-c2ccnc(NC(C)=O)c2)n1C` are 255 nM, 36 nM and 7.1.
Taken in the same sequence, the figures for `CC(=O)Nc1cc(-c2c(-c3ccc(F)cc3)nc(S/C=C\C(=O)O)n2C2CCCC2)ccn1` were 45 nM, 164 nM and 0.3.
Taken in the same sequence, the figures for `COC(Cn1c(S/C=C\C(=O)O)nc(-c2ccc(F)cc2)c1-c1ccnc(NC(C)=O)c1)OC` were 33 nM, 335 nM and 0.1.
`CC(=O)Nc1cc(-c2c(-c3ccc(F)cc3)nc(S/C=C\C(=O)O)n2C2CCC2)ccn1`: the IC50 in data set [1] was 47 nM; in data set [2], 211 nM. Also, the Ratio IC50 in the data set filed under Homo sapiens is 0.2.
In the same order, the values of `CC(=O)Nc1cc(-c2c(-c3ccc(F)cc3)nc(S/C=C\C(=O)O)n2CC2CCCCC2)ccn1` are 25 nM, 39 nM and 0.6.
For the compound `COC(=O)CSc1nc(-c2ccc(F)cc2)c(-c2ccnc(NC(C)=O)c2)n1C`, the IC50 in data set [1] worked out at 199 nM; in data set [2], 297 nM. Moreover, the Ratio IC50 in the data set listed under Homo sapiens is 0.7.
Taken in the same sequence, the figures for `CC(=O)Nc1cc(-c2c(-c3ccc(F)cc3)nc(SC3CCC(C(=O)O)CC3O)n2CC2CCCO2)ccn1` (racemic) were 2630 nM, 612 nM and 4.3.
